Common to all, as to assay: FA-based assay, characterization of irreversible inhibitors
One assay concerns the target T1, hTGase 1 (Homo sapiens, UniProt P22735).
T1 sequence (P22735 1-817): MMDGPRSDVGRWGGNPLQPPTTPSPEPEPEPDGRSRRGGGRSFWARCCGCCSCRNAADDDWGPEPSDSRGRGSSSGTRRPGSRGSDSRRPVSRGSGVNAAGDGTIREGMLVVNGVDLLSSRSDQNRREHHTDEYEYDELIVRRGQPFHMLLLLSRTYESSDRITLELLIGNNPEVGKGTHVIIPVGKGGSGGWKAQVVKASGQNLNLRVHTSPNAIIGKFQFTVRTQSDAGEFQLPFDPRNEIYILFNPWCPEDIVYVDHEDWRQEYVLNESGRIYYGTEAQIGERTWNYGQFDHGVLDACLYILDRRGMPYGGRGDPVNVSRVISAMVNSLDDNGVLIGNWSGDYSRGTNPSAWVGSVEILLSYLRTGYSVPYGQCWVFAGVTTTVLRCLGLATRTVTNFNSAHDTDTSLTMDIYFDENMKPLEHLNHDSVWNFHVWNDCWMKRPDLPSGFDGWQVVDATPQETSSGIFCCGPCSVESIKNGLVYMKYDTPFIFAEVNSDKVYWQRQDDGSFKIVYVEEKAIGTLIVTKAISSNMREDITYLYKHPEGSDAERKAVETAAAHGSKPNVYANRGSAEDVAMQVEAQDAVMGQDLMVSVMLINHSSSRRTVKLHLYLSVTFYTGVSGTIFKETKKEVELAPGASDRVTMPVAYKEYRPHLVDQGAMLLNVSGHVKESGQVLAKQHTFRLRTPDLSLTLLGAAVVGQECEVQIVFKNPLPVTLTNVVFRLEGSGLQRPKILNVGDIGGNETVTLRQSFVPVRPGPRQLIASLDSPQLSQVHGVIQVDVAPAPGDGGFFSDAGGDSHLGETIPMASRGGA

In a further assay the target is T2, hTGase 2 (Homo sapiens, UniProt P21980).
T2 sequence (P21980 1-687): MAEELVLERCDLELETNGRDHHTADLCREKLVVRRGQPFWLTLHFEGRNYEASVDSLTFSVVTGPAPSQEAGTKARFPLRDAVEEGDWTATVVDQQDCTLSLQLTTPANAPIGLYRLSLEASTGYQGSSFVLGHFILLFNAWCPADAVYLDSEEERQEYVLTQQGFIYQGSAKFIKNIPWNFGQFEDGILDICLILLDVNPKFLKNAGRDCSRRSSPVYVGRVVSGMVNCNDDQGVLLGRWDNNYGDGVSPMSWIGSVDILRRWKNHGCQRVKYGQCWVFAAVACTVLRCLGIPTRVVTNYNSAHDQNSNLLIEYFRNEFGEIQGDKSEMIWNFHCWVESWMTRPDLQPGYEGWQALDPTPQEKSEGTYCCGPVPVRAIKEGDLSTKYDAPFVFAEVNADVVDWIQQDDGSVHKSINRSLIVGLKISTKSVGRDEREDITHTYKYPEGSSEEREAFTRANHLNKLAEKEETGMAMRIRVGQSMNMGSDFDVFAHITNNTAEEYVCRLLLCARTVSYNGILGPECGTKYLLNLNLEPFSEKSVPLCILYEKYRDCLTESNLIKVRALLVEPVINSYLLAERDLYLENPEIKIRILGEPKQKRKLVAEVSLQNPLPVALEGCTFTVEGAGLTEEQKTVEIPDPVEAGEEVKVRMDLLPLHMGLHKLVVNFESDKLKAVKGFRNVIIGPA
The settings on record: DMC 30 µM, mean (SEM).

A further assay concerns the target T3, hTGase 3 (Homo sapiens, UniProt Q08188).
T3 sequence (Q08188 2-467 limits assumed): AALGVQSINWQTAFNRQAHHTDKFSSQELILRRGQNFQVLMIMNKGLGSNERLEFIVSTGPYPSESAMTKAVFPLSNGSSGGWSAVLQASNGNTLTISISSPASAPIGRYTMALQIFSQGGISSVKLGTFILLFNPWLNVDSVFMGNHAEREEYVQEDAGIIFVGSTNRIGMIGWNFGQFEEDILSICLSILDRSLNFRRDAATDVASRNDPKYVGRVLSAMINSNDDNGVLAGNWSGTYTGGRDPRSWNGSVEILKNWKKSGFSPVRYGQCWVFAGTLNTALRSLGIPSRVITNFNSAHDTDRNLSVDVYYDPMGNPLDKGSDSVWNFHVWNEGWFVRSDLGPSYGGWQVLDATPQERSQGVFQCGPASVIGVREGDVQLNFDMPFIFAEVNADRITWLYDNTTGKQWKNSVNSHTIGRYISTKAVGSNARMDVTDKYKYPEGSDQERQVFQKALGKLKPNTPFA
T3 sequence (Q08188 468-693 partner limits assumed): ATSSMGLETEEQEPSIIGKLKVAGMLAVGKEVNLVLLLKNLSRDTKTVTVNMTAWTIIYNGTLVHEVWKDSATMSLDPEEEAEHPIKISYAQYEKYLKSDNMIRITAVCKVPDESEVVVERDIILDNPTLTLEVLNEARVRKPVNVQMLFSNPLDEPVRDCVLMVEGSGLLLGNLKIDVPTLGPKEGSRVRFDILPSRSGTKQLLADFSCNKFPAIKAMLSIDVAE

A further assay concerns the target T4, hFXIIIa (Homo sapiens, UniProt P00488).
T4 sequence (P00488 39-732 limits assumed): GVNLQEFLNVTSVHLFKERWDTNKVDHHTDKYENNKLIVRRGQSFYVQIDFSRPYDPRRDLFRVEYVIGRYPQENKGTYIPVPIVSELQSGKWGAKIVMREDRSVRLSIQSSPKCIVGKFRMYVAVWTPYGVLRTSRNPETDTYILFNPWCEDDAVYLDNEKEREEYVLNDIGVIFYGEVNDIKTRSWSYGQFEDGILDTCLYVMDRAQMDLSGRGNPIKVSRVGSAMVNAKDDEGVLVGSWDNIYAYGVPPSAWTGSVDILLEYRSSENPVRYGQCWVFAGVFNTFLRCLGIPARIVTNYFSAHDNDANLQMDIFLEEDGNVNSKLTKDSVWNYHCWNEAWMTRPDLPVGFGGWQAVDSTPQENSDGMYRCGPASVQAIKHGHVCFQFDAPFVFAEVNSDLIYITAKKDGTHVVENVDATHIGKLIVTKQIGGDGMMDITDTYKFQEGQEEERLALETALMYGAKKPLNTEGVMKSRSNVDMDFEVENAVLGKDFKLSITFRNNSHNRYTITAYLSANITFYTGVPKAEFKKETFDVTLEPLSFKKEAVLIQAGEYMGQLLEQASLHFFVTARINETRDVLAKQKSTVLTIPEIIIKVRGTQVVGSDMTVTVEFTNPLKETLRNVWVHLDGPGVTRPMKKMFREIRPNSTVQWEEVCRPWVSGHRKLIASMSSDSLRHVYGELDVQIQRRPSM

The mark [1] stands for this setting: IC50 hTGase 2, preincubation 30 min, R-I-Cad 0.74 µM, hTGase 2 5 µg/mL.
Setting [2] is: IC50 hTGase 2, preincubation 5 min, R-I-Cad 0.81 µM, hTGase 2 2 µg/mL.

Regarding `C=CC(=O)NCCCC[C@H](NC(=O)Cc1ccccc1)C(=O)N1CCN(c2cccc(C)n2)CC1` [Compound 1], the IC50 – broadly, the concentration that inhibits the measured activity by half – against hTGase 1 was > 30 µM; on hTGase 2 (setting [1]) it was 0.04 µM; at hTGase 3, > 30 µM; at hFXIIIa, > 30 µM.
With `C=CC(=O)NCCCC[C@H](NC(=O)Cc1ccccc1)C(=O)N1CCN(c2ccc([N+](=O)[O-])nc2)CC1` [Compound 2], the IC50 on hTGase 1 was 8.99 µM; against hTGase 2 (setting [1]), 0.042 µM; on hTGase 3, 32.8 µM; against hFXIIIa, 17.6 µM.
As for `C#Cc1cccc(N2CCN(C(=O)[C@H](CCCCNC(=O)C=C)NC(=O)Cc3ccccc3)CC2)n1` [Compound 3, N^α-Phenylacetyl-N^ε-acryloyl-L-lysine-4-(6-ethinylpyridin-2-yl)piperazide], the IC50 on hTGase 1 was 10.2 µM; against hTGase 2 (setting [2]) it was 0.441 µM; at hTGase 2 (setting [1]) it was 0.096 µM; on hTGase 3, > 100 µM; on hFXIIIa, 26.2 µM.
`C=CC(=O)NCCCC[C@H](NC(=O)Cc1ccccc1)C(=O)N1CCN(c2cccc(-c3cn(CCOCCOCCOCCNC(=O)CCCC[C@@H]4SC[C@@H]5NC(=O)N[C@@H]54)nn3)n2)CC1` [Compound 4, N-(2-(2-(2-(2-(4-(6-(4-(N^6-acryloyl-N^2-(2-phenylacetyl)-L-lysyl)piperazin-1-yl)pyridin-2-yl)-1H-1,2,3-triazol-1-yl)ethoxy)ethoxy)ethoxy)ethyl)-5-((3aS,4S,6aR)-2-oxohexahydro-1H-thieno[3,4-d]imidazol-4-yl)pentanamide]: the IC50 against hTGase 1 is 4.56 µM; at hTGase 2 (setting [2]) it was 0.249 µM; against hTGase 2 (setting [1]), 0.068 µM; against hTGase 3, > 100 µM; against hFXIIIa, 7.12 µM.

Source of the values: PMC9104438, “Application of a Fluorescence Anisotropy-Based Assay to Quantify Transglutaminase 2 Activity in Cell Lysates” (International Journal of Molecular Sciences, 2022).
